Assay results taken from patent US8629174B2, “Unifying mechanism and methods to prevent cancer and neurodegenerative diseases” (Prevention L.L.C., priority 2002, dated 2014).

Tests used:
DNA = experiment: Reaction of E2-3,4-Q or enzymatically-activated 4-OHE2 with DNA in vitro; format: biochemical; conditions: enzymatically activated (peroxidases, tyrosinase, microsomes), all cases
Protocol: To determine whether DNA adducts are formed in biological systems, E2-3,4-Q or enzymatically-activated 4-hydroxyestradiol (4-OHE2) was reacted with DNA for 2 h at 37° C. The stable adducts were quantified by the ^32P-postlabeling method, and the depurinating adducts were analyzed by high pressure liquid chromatography (HPLC) interfaced with an electrochemical detector. When E2-3,4-Q reacted with DNA, almost the same amount of the depurinating adducts 4-OHE2-1-N3Ade and 4-OHE2-1-N7Gua were obtained, and the amount of stable adducts was 0.02% of the depurinating ones. Activation of 4-OHE2 by horseradish peroxidase gave similar results, whereas the mammalian lactoperoxidase produced a similar amount of N3Ade adduct, but about 50% more N7Gua adduct. The same two depurinating adducts were obtained in equal but smaller amounts when 4-OHE2 was activated with tyrosinase or phenobarbital-induced rat liver microsomes. In all cases, the level of stable adducts was 0.02% or less compared to the depurinating adducts (Li K. M., et al., Proc. Am. Assoc. Cancer Res., 39, 636 (1998); Cavalieri, et al., unpublished results).

mouse skin DNA = experiment: DNA adducts formed in mouse skin by PAH; format: in vivo
Harvey (H)-ras oncogene = experiment: H-ras mutations in mouse skin papillomas initiated by PAH; format: in vivo; conditions: codon 61, skin papillomas
H-ras gene = experiment: H-ras mutation spectra in treated mouse skin (PCR, cloning, sequencing, with or without TDG treatment); format: in vivo; conditions: for A/T to G/C mutations, percent of total mutations / A/T to G/C mutations/total mutations: skin DNA
Protocol: Evidence in support of this was obtained from a comparative study of mutations in the mouse skin H-ras gene induced by 200 nmol of DB[a,l]P or 200 nmol of anti-DB[a,l]P-11,12-dihydrodiol-13,14-epoxide (anti-DB[a,l]PDE). Unlike DB[a,l]P, anti-DB[a,l]PDE forms 97% stable adducts and 3% depurinating adducts in DNA. In these experiments, the types of mutations that are induced in the early preneoplastic times was identified (12 h to 9 days after treatment) and then analyzed whether these mutations were induced as a result of error-prone repair (FIG. 4). The mutations were identified by PCR amplifying a segment of the H-ras gene from DNA extracted from mouse skin treated with one of the carcinogens, cloning the PCR products in a plasmid, isolating individual subclones and sequencing the H-ras inserts to identify mutations. (Chakravarti D., et al., Mutation Res., 456, 17-32 (2000); Cavalieri E. L. and Rogan E. G., Mechanisms of tumor initiation by polycyclic aromatic hydrocarbons in mammals. In: The Handbook of Environmental Chemistry: PAHs and Related Compounds, 3J, 81-117, Neilson A. H. (ed.), Springer, Heidelberg, Germany (1998).)
In this technique, G.T heteroduplexes in skin DNA are converted to G.apyrimidinic sites by treatment with T.G-DNA glycosylase (TDG) (FIG. 5). (Chakravarti D., et al., Mutation Res., 456, 17-32 (2000).)
Since abasic site-containing DNA molecules are refractory to PCR amplification, the conversion of G.T heteroduplexes into G. apyrimidinic sites makes H-ras molecules containing these heteroduplexes unamplifiable. […] As a result, PCR amplification of the H-ras gene from TDG-treated skin DNA, followed by cloning the PCR product and isolating and determining the sequence of individual subclones, causes a specific, drastic reduction of A to G mutations in the mutation spectra. In addition, the preferential PCR amplification artificially enriches low-abundance mutations that are observed only in TDG-treated spectra.
Following the entry of skin cells into S-phase, however, the G.T heteroduplexes are converted into G.C and A.T base pairs by one round of replication. […] Thus, the specific reduction of A to G mutations in the mutation spectra by the TDG-PCR procedure characterizes these mutations as G.T heteroduplexes. […] Therefore, A to G mutations remained as G.T heteroduplexes until one day after DB[a,l]P treatment of the skin; beyond which they were present as G.C and A.T mutations, presumably by replication. Flow cytometric analysis of epidermal keratinocytes isolated from DB[a,l]P-treated mouse skin confirms that cells begin to enter the S-phase one day after the treatment. (Chakravarti D., et al., Mutation Res., 456, 17-32 (2000); Chakravarti et al., unpublished results).
Treatment of mouse skin with 200 nmol of E2-3,4-Q induced primarily A/T to G/C mutations in the H-ras gene (FIG. 7). For example, 6 h after E2-3,4-Q treatment, 7 mutations were identified among 29 H-ras inserts. Five of the seven were A/T to G/C mutations. At 12 h, four out of the six mutations found in 30 H-ras inserts were A/T to G/C mutations. […] The observation that E2-3,4-Q induces mutations at 6 h is, therefore, a basis to propose that these mutations are induced by error-prone repair. To confirm this, TDG-PCR analysis of these mutations was conducted (FIG. 7). […] At 12 h, the change was from 4 in 30 H-ras inserts to 0 in 41 plasmids. […] The TDG-treated 1 day spectrum was dominated by two clonal mutations of equal frequency (codon 16 AAG to AGG and intronic C to T mutations). Because it is unlikely that the intronic mutation would affect Ras activity and the two clonal mutations were found in the same frequency, these mutations may be allelic, belonging to a clonally proliferating population. […] (Chakravarti D., et al., Oncogene, 20, 7945-7953 (2001).)

[1] = test system: H-ras gene codon 61 (CAA to CTA); experiment: PCR-RFLP detection of H-ras codon 61 mutations in treated mouse skin; format: in vivo
Description: In this technique, a segment of the H-ras gene is PCR-amplified and the product is restricted with XbaI to examine the induction of a RFLP from the codon 61 mutation. It was observed that at one day, 0.1% of the H-ras genes in the treated area of skin contained the codon 61 mutation, and then the population of these mutations increased to a maximum of 5% between 3 and 4 days after DB[a,l]P treatment. Subsequently, the level of mutations was reduced to background levels (0.0001%). The early time of induction of the codon 61 mutations (one day after DB[a,l]P treatment) coincides with suppression of DNA synthesis and induction of excision repair. Therefore, perhaps DB[a,l]P-induced DNA damage is converted into mutations by error-prone excision repair in pre-S-phase cells. (Chakravarti D., et al., Oncogene, 16, 3203-3210 (1998); Slaga T. J., et al., Cancer Res., 34a, 771-777 (1974); Sawyer T. W., et al., Carcinogenesis, 9, 1197-1202 (1988); Gill R. D., et al., Environ. Mol. Mutagen., 18, 200-206 (1991).)

cloned H-ras gene (pWT) = experiment: Mutations after PCR of pWT plasmid treated in vitro, with or without TDG; conditions: pWT DNA
Description: FIGS. 4A-D depict H-ras mutations induced by DB[a,l]P or its metabolite, anti-DB[a/l]PDE. Wild type sequences and nucleotide numbers (GenBank accession No. U89950) are indicated below and mutations are indicated above the line. (A) PCR artifact mutations induced in untreated skin DNA and in a cloned H-ras gene (pWT) treated with anti-DB[a,l]PDE or with acid. Under the treatment conditions, anti-DB[a,l]PDE induces 1 adduct per 1000 bases and acid induces 1 depurination per 170 bases (Chakravarti, D. Et al., Mutat. Res., 456, 17-32 (2000)). (B) H-ras mutations in mouse skin DNA after treatment with 200 nmol DB[a,l]P in 100 μL acetone. At 12 h-1 d, the spectra contained mostly A/T to G/C mutations. At days 2 and 3, multiple codon 61 mutations were observed. At 4 d, no clear pattern of mutations could be determined. At days 5 and 6, multiple codon 52 (CTA to CCA) mutations were observed. […] (C) H-ras mutations in mouse skin DNA after treatment with 200 nmol of anti-DB[a,l]PDE in 100 μL acetone. Fifty to sixty percent of mutations between days 1 to 4 were A/T to G/C mutations. (D) H-ras mutations after TDG treatment of DNA from anti-DB[a,l]PDE-treated pWT and from DB[a,l]P- or anti-DB[a,l]PDE-treated mouse skin. […] These mutations were also observed at days 2 and 3. In addition, at days 2 and 3, multiple codon 13 (GGC to GTC) mutations were observed.
On the other hand, anti-DB[a,l]PDE formed approximately 50% A/T to G/C mutations, which correlated with 48.5% formation of anti-DB[a,l]PDE-Ade stable adducts in mouse skin DNA (Table 2). […] Studies conducted in other laboratories also indicate that nucleotide excision repair of bulky stable adducts is error-free. When the pWT plasmid was treated with anti-DB[a,l]PDE in vitro (97% bulky stable adducts) and subjected to PCR amplification, A/T to G/C mutations was also found to constitute 50% of all mutations (5 out of 10) (FIG. 4A). These mutations are induced by translesional synthesis over bulky stable adducts by the PCR polymerases. If, as has been proposed by others, only a small population of PAH-induced bulky stable adducts is removed by pre-replication repair, a large fraction of anti-DB[a,l]PDE-induced adducts would persist in the mouse skin DNA. It is, therefore, possible that the mutations found in anti-DB[a,l]PDE-treated mouse skin DNA are adduct-induced PCR artifacts. The similarity of the frequencies of A/T to G/C mutations in vitro and in skin is consistent with this idea.

C[C@]12CC[C@@H]3c4ccc(O)c(O)c4CC[C@H]3[C@@H]1CC[C@@H]2O [4-OHE2, 4-hydroxyestradiol]
level of stable adducts compared to the depurinating adducts (DNA): ≤ 0.02%

c1ccc2c(c1)cc1ccc3cccc4c5ccccc5c2c1c34 [DB[a,l]P, dibenzo[a,l]pyrene]
depurinations through depurinating adducts versus spontaneous base loss (mouse skin DNA; spontaneous: 10,000-20,000 depurinations/cell/day): approximately 120 fold
H-ras Mutations, No. of mutations/No. of mice, CAA→CTA (Harvey (H)-ras oncogene): 10/12 CAA→CTA
A/T to G/C mutations, percent of total mutations (H-ras gene; day 1, +TDG): 20%
A/T to G/C mutations/total mutations (H-ras gene; day 1, +TDG): 2/10
A/T to G/C mutations, percent of total mutations (H-ras gene; day 1, −TDG): 90%
A/T to G/C mutations/total mutations (H-ras gene; day 1, −TDG): 10/11
A/T to G/C mutations, percent of total mutations (H-ras gene; day 2, +TDG): 27%
A/T to G/C mutations/total mutations (H-ras gene; day 2, +TDG): 6/22
A/T to G/C mutations, percent of total mutations (H-ras gene; day 2, −TDG): 31%
A/T to G/C mutations/total mutations (H-ras gene; day 2, −TDG): 11/35
A/T to G/C mutations, percent of total mutations (H-ras gene; day 3, +TDG): 32%
A/T to G/C mutations/total mutations (H-ras gene; day 3, +TDG): 8/25
A/T to G/C mutations, percent of total mutations (H-ras gene; day 3, −TDG): 31%
A/T to G/C mutations/total mutations (H-ras gene; day 3, −TDG): 7/22
H-ras genes in treated skin containing the codon 61 mutation ([1]; 200 nmol, at one day): 0.1%
H-ras genes containing the codon 61 mutation, maximum ([1]; 200 nmol, between 3 and 4 days after treatment): 5%
level of codon 61 mutations, subsequently reduced to background levels ([1]; after days 3-4): 0.0001%

Cc1c2ccccc2c(C)c2c1ccc1ccccc12 [DMBA, 7,12-dimethylbenz[a]anthracene]
H-ras Mutations, No. of mutations/No. of mice, CAA→CTA (Harvey (H)-ras oncogene): 4/4 CAA→CTA

OC1c2cc3ccc4cccc5c6ccccc6c(c2C2OC2C1O)c3c45 (stereo not drawn) [anti-DB[a,l]PDE, anti-dibenzo[a,l]pyrene-11,12-dihydrodiol-13,14-epoxide]
depurinating adducts formed, share of adducts (mouse skin DNA; DNA): 3%
stable adducts formed, share of adducts (mouse skin DNA; DNA): 97%
Ade stable adducts formed (mouse skin DNA; mouse skin DNA): 48.5%
A/T to G/C mutations formed, share of mutations (H-ras gene; mouse skin): approximately 50%
A/T to G/C mutations, percent of total mutations (H-ras gene; day 1, +TDG): 80%
A/T to G/C mutations/total mutations (H-ras gene; day 1, +TDG): 4/5
A/T to G/C mutations, percent of total mutations (H-ras gene; day 1, −TDG): 62.5%
A/T to G/C mutations/total mutations (H-ras gene; day 1, −TDG): 5/8
A/T to G/C mutations, percent of total mutations (cloned H-ras gene (pWT); +TDG): 60%
A/T to G/C mutations/total mutations (cloned H-ras gene (pWT); +TDG): 3/5
A/T to G/C mutations, percent of total mutations (cloned H-ras gene (pWT); −TDG): 50%
A/T to G/C mutations/total mutations (cloned H-ras gene (pWT); −TDG): 5/10
